Experimental data taken from PubChem BioAssay (NCI).
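Cells were grown in 96-well plates and exposed to each compound for 48 hours at five concentrations; endpoints were interpolated linearly between bracketing concentrations, or set to the highest concentration if not reached. Definition used: TGI = concentration required for complete inhibition of growth.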

What was measured:
Test in all cases: NCI-60 cell line screen, 48 h
786-0 renal = test system: 786-0 renal
A498 renal = test system: A498 renal
A549 NSCLC = test system: A549 NSCLC
ACHN renal = test system: ACHN renal
BT-549 breast = test system: BT-549 breast
CAKI-1 renal = test system: CAKI-1 renal
CCRF-CEM leukemia = test system: CCRF-CEM leukemia
COLO 205 colon = test system: COLO 205 colon
DU-145 prostate = test system: DU-145 prostate
EKVX NSCLC = test system: EKVX NSCLC
HCC-2998 colon = test system: HCC-2998 colon
HCT-116 colon = test system: HCT-116 colon
HCT-15 colon = test system: HCT-15 colon
HL-60(TB) leukemia = test system: HL-60(TB) leukemia
HOP-62 NSCLC = test system: HOP-62 NSCLC
HOP-92 NSCLC = test system: HOP-92 NSCLC
HS 578T breast = test system: HS 578T breast
HT29 colon = test system: HT29 colon
IGROV1 ovarian = test system: IGROV1 ovarian
K-562 leukemia = test system: K-562 leukemia
KM12 colon = test system: KM12 colon
LOX IMVI melanoma = test system: LOX IMVI melanoma
M14 melanoma = test system: M14 melanoma
MALME-3M melanoma = test system: MALME-3M melanoma
MCF7 breast = test system: MCF7 breast
MDA-MB-231 breast = test system: MDA-MB-231 breast
MDA-MB-435 = test system: MDA-MB-435
MDA-N = test system: MDA-N
MOLT-4 leukemia = test system: MOLT-4 leukemia
NCI-H226 lung = test system: NCI-H226 lung
NCI-H23 lung = test system: NCI-H23 lung
NCI-H460 lung = test system: NCI-H460 lung
NCI-H522 lung = test system: NCI-H522 lung
NCI/ADR-RES ovarian = test system: NCI/ADR-RES ovarian
OVCAR-3 ovarian = test system: OVCAR-3 ovarian
OVCAR-4 ovarian = test system: OVCAR-4 ovarian
OVCAR-5 ovarian = test system: OVCAR-5 ovarian
OVCAR-8 ovarian = test system: OVCAR-8 ovarian
PC-3 prostate = test system: PC-3 prostate
RPMI-8226 leukemia = test system: RPMI-8226 leukemia
RXF 393 renal = test system: RXF 393 renal
SF-268 CNS = test system: SF-268 CNS
SF-295 CNS = test system: SF-295 CNS
SF-539 CNS = test system: SF-539 CNS
SK-MEL-2 melanoma = test system: SK-MEL-2 melanoma
SK-MEL-28 melanoma = test system: SK-MEL-28 melanoma
SK-MEL-5 melanoma = test system: SK-MEL-5 melanoma
SK-OV-3 ovarian = test system: SK-OV-3 ovarian
SN12C renal = test system: SN12C renal
SNB-19 CNS = test system: SNB-19 CNS
SNB-75 CNS = test system: SNB-75 CNS
SR leukemia = test system: SR leukemia
SW-620 colon = test system: SW-620 colon
T-47D breast = test system: T-47D breast
TK-10 renal = test system: TK-10 renal
U251 CNS = test system: U251 CNS
UACC-257 melanoma = test system: UACC-257 melanoma
UACC-62 melanoma = test system: UACC-62 melanoma
UO-31 renal = test system: UO-31 renal

## Cc1cc(C)c([S@@](=O)O[C@@H]2[C@H]3OC(C)(C)O[C@H]3O[C@@H]2[C@H]2COC(C)(C)O2)c(C)c1
786-0 renal
  TGI: 64.6 µM
A498 renal
  TGI: 47.2 µM
A549 NSCLC
  TGI: > 100 µM
ACHN renal
  TGI: 33.5 µM
BT-549 breast
  TGI: 30.6 µM
CAKI-1 renal
  TGI: 9.11 µM
CCRF-CEM leukemia
  TGI: 88.7 µM
COLO 205 colon
  TGI: 38.9 µM
DU-145 prostate
  TGI: 89.2 µM
EKVX NSCLC
  TGI: 61.2 µM
HCC-2998 colon
  TGI: 41.7 µM
HCT-116 colon
  TGI: 57 µM
HCT-15 colon
  TGI: > 100 µM
HL-60(TB) leukemia
  TGI: 28.7 µM
HOP-62 NSCLC
  TGI: 51.3 µM
HOP-92 NSCLC
  TGI: 38.4 µM
HS 578T breast
  TGI: > 100 µM
HT29 colon
  TGI: 85.7 µM
IGROV1 ovarian
  TGI: 18 µM
K-562 leukemia
  TGI: 76.8 µM
KM12 colon
  TGI: 40.2 µM
LOX IMVI melanoma
  TGI: 30.1 µM
M14 melanoma
  TGI: 59.4 µM
MALME-3M melanoma
  TGI: 80.1 µM
MCF7 breast
  TGI: 57.9 µM
MDA-MB-231 breast
  TGI: 60.5 µM
MDA-MB-435
  TGI: 40.2 µM
MDA-N
  TGI: 65.4 µM
MOLT-4 leukemia
  TGI: 43.3 µM
NCI-H226 lung
  TGI: 53.2 µM
NCI-H23 lung
  TGI: 89.5 µM
NCI-H460 lung
  TGI: 62.9 µM
NCI-H522 lung
  TGI: 24.1 µM
NCI/ADR-RES ovarian
  TGI: 57 µM
OVCAR-3 ovarian
  TGI: 41.6 µM
OVCAR-4 ovarian
  TGI: 42.8 µM
OVCAR-5 ovarian
  TGI: 83.9 µM
OVCAR-8 ovarian
  TGI: 37.6 µM
PC-3 prostate
  TGI: 41.2 µM
RPMI-8226 leukemia
  TGI: 50.5 µM
RXF 393 renal
  TGI: 36.3 µM
SF-268 CNS
  TGI: 95.3 µM
SF-295 CNS
  TGI: > 100 µM
SF-539 CNS
  TGI: 39.5 µM
SK-MEL-2 melanoma
  TGI: 86.1 µM
SK-MEL-28 melanoma
  TGI: 90.5 µM
SK-MEL-5 melanoma
  TGI: 97.9 µM
SK-OV-3 ovarian
  TGI: > 100 µM
SN12C renal
  TGI: 42.7 µM
SNB-19 CNS
  TGI: > 100 µM
SNB-75 CNS
  TGI: 59.6 µM
SR leukemia
  TGI: 49 µM
SW-620 colon
  TGI: 49.3 µM
T-47D breast
  TGI: > 100 µM
TK-10 renal
  TGI: 59.7 µM
U251 CNS
  TGI: 44.1 µM
UACC-257 melanoma
  TGI: 46.2 µM
UACC-62 melanoma
  TGI: 51.6 µM
UO-31 renal
  TGI: 33.2 µM
